Laboratory results as given in patent US20100055179A1, “Composition of and Method for Preparing Orally Disintegrating Tablets Containing a High Dose of Pharmaceutically Active Ingredients” (MALLINCKRODT INC., priority 2006, published 2010).

Assays:
Format in all cases: physicochemical
[1] = In vitro disintegration test (USP Test No. 701)
Procedure: (3) In vitro disintegration test-The disintegration time of the tablets was determined according to U.S. Pharmacopeia, Test No. 701.

[2] = Friability test (USP <1216>)
Procedure: (2) Friability test-The friability test method was performed by a Varian Friabilator according to the USP tablet friability method described in <1216> Tablet Friability of the General chapters describing General Test Assays.

[3] = Wetting test (simulated in vivo disintegration time)
Procedure: (4) Wetting Test-One Whatman filter disc (21 mm in diameter) was placed in each well of a Corning 12-well polystyrene microplate (22 mm in diameter). One and a half […] of Sensient Blue #1 dye solution (similar to in vivo conditions-tongue surface) was then added into each well. An ODT tablet was carefully placed on the surface of the wet paper disc in each well using a pair of forceps, tablet face flat on the filter paper. Finally, the total wetting time was recorded as the time required for the blue dye solution to cover the surface of the tablet as simulated in vivo disintegration time.

[4] = Hardness test (tablet crushing load, Varian VK-200)
Procedure: (1) Hardness test-The ODT tablet crushing load, which is the force (kilopond, kP) required to break a tablet into halves by compression in the diametral direction, was measured with a hardness tester (Varian Hardness Tester, VK-200).

[5] = 0.3% (w/w) APAP as COMPAP with Formulation A granules, Example 4
[6] = 0.3% (w/w) regular APAP blended with Formulation A granules, 400 mg tablet, Example 2
[7] = 0.3% (w/w) regular APAP wet-granulated with Formulation A, Example 3
[8] = 1.0% (w/w) APAP as COMPAP with Formulation A granules, Example 4
[9] = 1.0% (w/w) regular APAP blended with Formulation A granules, 400 mg tablet, Example 2
[10] = 1.0% (w/w) regular APAP wet-granulated with Formulation A, Example 3
[11] = 10.0% (w/w) APAP as COMPAP with Formulation A granules, Example 4
[12] = 10.0% (w/w) regular APAP blended with Formulation A granules, 400 mg tablet, Example 2
[13] = 10.0% (w/w) regular APAP wet-granulated with Formulation A, Example 3
[14] = 15.0% (w/w) regular APAP blended with Formulation A granules, 400 mg tablet, Example 2
[15] = 20.0% (w/w) APAP as COMPAP with Formulation A granules, Example 4
[16] = 20.0% (w/w) regular APAP wet-granulated with Formulation A, Example 3
[17] = 30.0% (w/w) APAP as COMPAP with Formulation A granules, Example 4
[18] = 30.0% (w/w) regular APAP wet-granulated with Formulation A, Example 3
[19] = 40.0% (w/w) APAP as COMPAP with Formulation A granules, Example 4
[20] = 50.0% (w/w) APAP as COMPAP with Formulation A granules, Example 4

USP-DIT (in vitro disintegration time, USP method) [1, 5]: 26 s
USP-DIT (in vitro disintegration time, USP method) [1, 6]: 18 s
USP-DIT (in vitro disintegration time, USP method) [1, 7]: 12 s
USP-DIT (in vitro disintegration time, USP method) [1, 8]: 15 s
USP-DIT (in vitro disintegration time, USP method) [1, 9]: 20 s
USP-DIT (in vitro disintegration time, USP method) [1, 10]: 12 s
USP-DIT (in vitro disintegration time, USP method) [1, 11]: 11 s
USP-DIT (in vitro disintegration time, USP method) [1, 12]: 9 s
USP-DIT (in vitro disintegration time, USP method) [1, 13]: 18 s
USP-DIT (in vitro disintegration time, USP method) [1, 14]: 10 s
USP-DIT (in vitro disintegration time, USP method) [1, 15]: 11 s
USP-DIT (in vitro disintegration time, USP method) [1, 16]: 19 s
USP-DIT (in vitro disintegration time, USP method) [1, 17]: 16 s
USP-DIT (in vitro disintegration time, USP method) [1, 18]: 28 s
USP-DIT (in vitro disintegration time, USP method) [1, 19]: 16 s
USP-DIT (in vitro disintegration time, USP method) [1, 20]: 16 s
Friability [2, 5]: 0.5%
Friability [2, 6]: 0.02%
Friability [2, 7]: 0.3%
Friability [2, 8]: 0.3%
Friability [2, 9]: 0.03%
Friability [2, 10]: 0.2%
Friability [2, 11]: 0.5%
Friability [2, 12]: 0.46%
Friability [2, 13]: 0.0%
Friability [2, 14]: 0.08%
Friability [2, 15]: 0.0%
Friability [2, 16]: 0.2%
Friability [2, 17]: 0.5%
Friability [2, 18]: 0.0%
Friability [2, 19]: 0.0%
Friability [2, 20]: 0.3%
Wetting time [3, 5]: 15 s
Wetting time [3, 6]: 12 s
Wetting time [3, 7]: 18 s
Wetting time [3, 8]: 16 s
Wetting time [3, 9]: 11 s
Wetting time [3, 10]: 21 s
Wetting time [3, 11]: 22 s
Wetting time [3, 12]: 10 s
Wetting time [3, 13]: 30 s
Wetting time [3, 14]: 9 s
Wetting time [3, 15]: 30 s
Wetting time [3, 16]: 25 s
Wetting time [3, 17]: 45 s
Wetting time [3, 18]: 21 s
Wetting time [3, 19]: 65 s
Wetting time [3, 20]: 117 s
Hardness [4, 5]: 7.9 kP
Hardness [4, 6]: 8.1 kP
Hardness [4, 7]: 8.1 kP
Hardness [4, 8]: 7.6 kP
Hardness [4, 9]: 9.3 kP
Hardness [4, 10]: 8.6 kP
Hardness [4, 11]: 8.0 kP
Hardness [4, 12]: 6.5 kP
Hardness [4, 13]: 8.5 kP
Hardness [4, 14]: 6.8 kP
Hardness [4, 15]: 9.1 kP
Hardness [4, 16]: 7.5 kP
Hardness [4, 17]: 7.2 kP
Hardness [4, 18]: 7.9 kP
Hardness [4, 19]: 5.7 kP
Hardness [4, 20]: 4.2 kP
SMILES: CC(=O)Nc1ccc(O)cc1 [APAP, Acetaminophen]
